Experimental data as given in US20250161308A1, “Methods of Treating Covid-Related Disorders” (priority 2022, published 2025).
Read-outs that look alike come from different tables or passages of the source.

Key:
[1] = system: Rat primary cortical neuron cultures; type: cell-based; conditions: for Significance of neuroprotection vs 1 uM LPS: 24 h LPS
[2] = system: pulmonary LPS-stimulated rats; assay: Immune cell infiltration in BALF, LPS acute pulmonary inflammation; type: in vivo, rat
[3] = system: LPS-induced cognitive deficit in CD-1 mice; assay: Rodent LPS model of brain inflammation, T-maze spontaneous alternation; type: in vivo, mouse; conditions: for Recovery (%) / Spontaneous alternation (%) Mean: LPS 250 μg/kg
Rat hippocampal neurons [4] = assay: Neurite outgrowth assay; type: cell-based
Rat hippocampal neurons [5] = assay: Synaptogenesis assay; type: cell-based; conditions: for Significant increase in: Synapses: Table 4 study
[6] = system: THP1-differentiated macrophages; type: cell-based, human; parameters: key to Significant reduction in IL-6 / Significant reduction in TNF-α / Significant reduction in IL-1β: NS: indicates a non-significant reduction in the indicated cytokine; +: indicates a p value<0.05 in Tukey post test; ++: indicates a p value<0.01 in Tukey post test; conditions: for Significant reduction in IL-1β / Significant reduction in IL-6 / Significant reduction in TNF-α: 24 hrs LPS
[7] = system: pulmonary LPS-stimulated rats; assay: Cytokine expression in BALF supernatant (multiplex immunoassay), LPS acute pulmonary inflammation; type: in vivo, rat

CCC(C)CN1CC2N(Cc3ccc(C(F)(F)F)cc3)CCC(=O)N2[C@@H](C)C1=O (stereo partly shown) [Compound 5a]
Significance of neuroprotection vs 1 uM LPS ([1]; 0.1 nM): +++ (+++ indicates p<0.001) | Significance of neuroprotection vs 1 uM LPS ([1]; 1 nM): +++ (+++ indicates p<0.001) | Significance of neuroprotection vs 1 uM LPS ([1]; 10 nM): +++ (+++ indicates p<0.001) | Significance of neuroprotection vs 1 uM LPS ([1]; 100 nM): +++ (+++ indicates p<0.001) | Significance of neuroprotection vs 1 uM LPS ([1]; 1 μM): +++ (+++ indicates p<0.001) | protection of primary neurons from LPS-stimulated inflammatory toxicity ([1]; at at least one dose tested): protected primary neurons from LPS-stimulated inflammatory toxicity | Neutrophils in BALF, reduction vs disease control ([2]; 0.075 mg/kg IV): ++ (++ = >25% reduction in cell count vs disease control) | Total Leukocytes in BALF, reduction vs disease control ([2]; 0.075 mg/kg IV): ++ (++ = >25% reduction in cell count vs disease control) | Neutrophils in BALF, reduction vs disease control ([2]; 0.75 mg/kg IV): + (+ = >5% reduction in cell count vs disease control) | Total Leukocytes in BALF, reduction vs disease control ([2]; 0.75 mg/kg IV): + (+ = >5% reduction in cell count vs disease control) | Neutrophils in BALF, reduction vs disease control ([2]; 7.5 mg/kg IV): + (+ = >5% reduction in cell count vs disease control) | Total Leukocytes in BALF, reduction vs disease control ([2]; 7.5 mg/kg IV): + (+ = >5% reduction in cell count vs disease control) | neutrophil counts compared to LPS-only controls (in words) ([2]; rat, in vivo): reduced both total leukocyte counts and neutrophil counts | total leukocyte counts compared to LPS-only controls (in words) ([2]; rat, in vivo): reduced both total leukocyte counts and neutrophil counts | Recovery (%) ([3]; 1.25 mg/kg p.o. 14 days): 58% | Spontaneous alternation (%) Mean ([3]; 1.25 mg/kg p.o. 14 days): 59% | Spontaneous alternation (%) Mean ([3]; 1.25 mg/kg p.o. 14 days, listed as Cmpd 5a): 59.3% | Recovery (%) ([3]; 2.5 mg/kg p.o. 14 days): 53% | Spontaneous alternation (%) Mean ([3]; 2.5 mg/kg p.o. 14 days): 58% | Spontaneous alternation (%) Mean ([3]; 2.5 mg/kg p.o. 14 days, listed as Cmpd 5a): 57.9% | Recovery (%) ([3]; 5 mg/kg p.o. 14 days): 64% | Spontaneous alternation (%) Mean ([3]; 5 mg/kg p.o. 14 days): 61% | Spontaneous alternation (%) Mean ([3]; 5 mg/kg p.o. 14 days, listed as Cmpd 5a): 60.7% | Recovery (%) ([3]; 10 mg/kg p.o. 14 days): 53% | Spontaneous alternation (%) Mean ([3]; 10 mg/kg p.o. 14 days): 58% | Spontaneous alternation (%) Mean ([3]; 10 mg/kg p.o. 14 days, listed as Cmpd 5a): 57.9% | Recovery (%) ([3]; 20 mg/kg p.o. 14 days): 61% | Spontaneous alternation (%) Mean ([3]; 20 mg/kg p.o. 14 days): 60% | Spontaneous alternation (%) Mean ([3]; 20 mg/kg p.o. 14 days, listed as Cmpd 5a): 60.0% | significance of reversal of LPS-induced cognitive deficit (in words) ([3]; T-maze): significant reversal of LPS-induced cognitive deficits at all doses | neurite length / extension of neurites (in words) (Rat hippocampal neurons [4]): increase neurite length at 1 nM | Significant increase in: Neurite length (Rat hippocampal neurons [4]; 1 nM, Table 4 study): ++++ (++++ = p < 0.0001) | synapse counts (in words) (Rat hippocampal neurons [5]): increase synapse counts at doses of 1 nM and 100 nM | Significant increase in: Synapses (Rat hippocampal neurons [5]; 1 nM): ++++ (++++ = p < 0.0001) | Significant increase in: Synapses (Rat hippocampal neurons [5]; 100 nM): ++++ (++++ = p < 0.0001) | Significant reduction in IL-1β ([6]; 0.1 nM): ++ (indicates a p value<0.01 in Tukey post test) | Significant reduction in IL-6 ([6]; 0.1 nM): NS | Significant reduction in TNF-α ([6]; 0.1 nM): NS | Significant reduction in IL-1β ([6]; 10 nM): ++ (indicates a p value<0.01 in Tukey post test) | Significant reduction in IL-6 ([6]; 10 nM): + (indicates a p value<0.05 in Tukey post test) | Significant reduction in TNF-α ([6]; 10 nM): NS | Significant reduction in IL-1β ([6]; 1000 nM): ++ (indicates a p value<0.01 in Tukey post test) | Significant reduction in IL-6 ([6]; 1000 nM): ++ (indicates a p value<0.01 in Tukey post test) | Significant reduction in TNF-α ([6]; 1000 nM): + (indicates a p value<0.05 in Tukey post test) | expression of IL-1β (in words) ([6]; at at least one tested dose): significantly reduced the expression of IL-1β and TNF-α | expression of IL-6 (in words) ([6]; at at least one tested dose): significantly reduced the expression of IL-6 | expression of TNF-α (in words) ([6]; at at least one tested dose): significantly reduced the expression of IL-1β and TNF-α | CCL3, significant change in expression in BALF supernatant ([7]; 0.075 mg/kg IV): + (+ = Significant change in cytokine quantification, p < 0.05 by Student's T-test.) | CX3CL1, significant change in expression in BALF supernatant ([7]; 0.075 mg/kg IV): + (+ = Significant change in cytokine quantification, p < 0.05 by Student's T-test.) | EGF, significant change in expression in BALF supernatant ([7]; 0.075 mg/kg IV): + (+ = Significant change in cytokine quantification, p < 0.05 by Student's T-test.) | IFN-γ, significant change in expression in BALF supernatant ([7]; 0.075 mg/kg IV): + (+ = Significant change in cytokine quantification, p < 0.05 by Student's T-test.) | IL-1α, significant change in expression in BALF supernatant ([7]; 0.075 mg/kg IV): + (+ = Significant change in cytokine quantification, p < 0.05 by Student's T-test.) | IL-1β, significant change in expression in BALF supernatant ([7]; 0.075 mg/kg IV): + (+ = Significant change in cytokine quantification, p < 0.05 by Student's T-test.) | IL-10, significant change in expression in BALF supernatant ([7]; 0.075 mg/kg IV): + (+ = Significant change in cytokine quantification, p < 0.05 by Student's T-test.) | IL-12p70, significant change in expression in BALF supernatant ([7]; 0.075 mg/kg IV): + (+ = Significant change in cytokine quantification, p < 0.05 by Student's T-test.) | IL-17A, significant change in expression in BALF supernatant ([7]; 0.075 mg/kg IV): + (+ = Significant change in cytokine quantification, p < 0.05 by Student's T-test.) | IFN-γ, significant change in expression in BALF supernatant ([7]; 0.75 mg/kg IV): + (+ = Significant change in cytokine quantification, p < 0.05 by Student's T-test.) | IL-1α, significant change in expression in BALF supernatant ([7]; 0.75 mg/kg IV): + (+ = Significant change in cytokine quantification, p < 0.05 by Student's T-test.) | IL-1β, significant change in expression in BALF supernatant ([7]; 0.75 mg/kg IV): + (+ = Significant change in cytokine quantification, p < 0.05 by Student's T-test.) | IL-10, significant change in expression in BALF supernatant ([7]; 0.75 mg/kg IV): + (+ = Significant change in cytokine quantification, p < 0.05 by Student's T-test.) | IL-17A, significant change in expression in BALF supernatant ([7]; 0.75 mg/kg IV): + (+ = Significant change in cytokine quantification, p < 0.05 by Student's T-test.) | IL-1α, significant change in expression in BALF supernatant ([7]; 7.5 mg/kg IV): + (+ = Significant change in cytokine quantification, p < 0.05 by Student's T-test.) | IL-10, significant change in expression in BALF supernatant ([7]; 7.5 mg/kg IV): + (+ = Significant change in cytokine quantification, p < 0.05 by Student's T-test.) | cytokines with significant changes in expression in BALF supernatant (list) ([7]; any dose, p<0.05 vs LPS-only animals): CCL3, CXCL1, IFN-γ, IL-1α, IL-1p, IL-1β, IL-12p70, and IL-17A
